The text below walks through data of patent US9192680B2, “Pharmaceutical compounds” (APOSENSE LTD., priority 2010, dated 2015).

Data set [1] relates to Mia-PaCa pancreatic carcinoma tumors. In words: Xenograft model of pancreatic carcinoma.
A further data set relates to A375-melanoma cells. In words: Cytotoxicity in cultured A375-melanoma cells (XTT cell viability). The data set is classed as cell-based. The conditions noted are these: Homo sapiens, read-out: IC50 (drug concentration that inhibited 50% of the cell growth). The protocol: Cells were grown in RPMI 1640 (Gibco, UK) supplemented with 10% FBS (Gibco, UK) 2 mM of L-glutamin (Gibco, UK), 20 mM HEPES buffer (Beit-Haemek, Israel), 100 units/ml of penicillin, and 100 μg/ml of streptomycin (Gibco, UK). Cells were cultured in humidified atmosphere containing 5% CO2 at 37° C. Medium was routinely changed twice a week, and cells were sub-cultured with 0.25% trypsin/EDTA (Beit-Haemek, Israel) when reaching 85% confluence.
ATT-11T was produced by Aptuit-Laurus (India). The compound was dissolved in DMSO. […] The cells were incubated for 24 hours at 37° C. with serial dilutions of ATT-11T (or CPT 11), dissolved in growing medium. Cell viability was then determined, using the XTT reagent (Beit-Haemek, Israel). At the end of the incubation period, tetrazolium dye was added, and formation of a colored product formazan was measured at 450 nm using a microplate reader (ELx800, Bio-Tek instruments Inc.). Cell viability vs. drug concentration was plotted, and data were fitted with a non-linear regression analysis using GraphPad prisma ver.5.0 software. […]

The nature of data set [2]: Maximal tolerated dose (MTD). The conditions noted are these: female, athymic nude, mouse, in vivo, ip; intraperitoneally, once a week for three weeks, nude mice; read-out: maximal tolerate dose (MTD). As to the method:
Drug treatment was initiated on day 11, when tumors reached an average volume of 119 mm^3 ATT-11T was administered in a vehicle comprising 5% DMSO, 5% NMP, 10% ETOH, 40% PEG-400 and 40% PG. […] . […] The drugs were administered intraperitoneally.

Data set [3] is described as follows: Pharmacokinetics after single intravenous administration. The conditions noted are these: 6 mg/kg single i.v. The data set is classed as in vivo, beagle dogs. As to the method: The stock solution was diluted 10-fold in 10% bovine serum albumin solution in 0.1M sodium phosphate buffer (pH 5.8) and mixed by vortex until a homogeneous emulsion was obtained. […] Fresh formulations of both drugs were prepared prior to each administration, and the drugs were administrated by a slow bolus injection within approximately 3 minutes, at a dose of 6 mg/kg (1.2 ml/kg), adjusted to the individual animal body weight.
Plasma was separated by centrifugation, and stored at −70° C. until HPLC analysis. WinNonlin™ software was used for the analysis of the pharmacokinetic data.

Data set [4] deals with SW-620 colorectal carcinoma tumors. Format: in vivo, athymic nude mice. The conditions noted are these: for tumor growth inhibition: one week after the last administration. As to the method:
Drug treatment was initiated on day 11, when tumors reached an average volume of 119 mm^3 ATT-11T was administered in a vehicle comprising 5% DMSO, 5% NMP, 10% ETOH, 40% PEG-400 and 40% PG. […] The drugs were administered intraperitoneally.

Data set [5] deals with OVCAR-3 ovarian carcinoma tumors. In words: Xenograft model of ovarian carcinoma. The data set is classed as in vivo, athymic nude mice. The conditions noted are these: for growth inhibition vs. the control group: one week post last administration. From the text: Tumor-bearing mice, injected only with the vehicle solution served as the control group.
A further data set has as its system H-82 SCLC tumors. In words: Xenograft model of small-cell lung carcinoma.
The next data set concerns A375 melanoma tumors. Nature of the data set: Xenograft model of melanoma: tumor regression, growth inhibition and growth delay. Format: in vivo, athymic nude mice. The conditions noted are these: for Tumor volume inhibition (TVI): one week after the last dose; for tumor growth at day 30 after the last dose: 58 days after tumor cell inoculation; for growth inhibition: one week after last administration. As to the method: Tumor-bearing mice, injected only with the vehicle solution served as controls.
ATT11-T (Aptuit-Luarus, India) was administered in a vehicle as described above. Tumor-bearing mice injected only with the vehicle solution served as controls. […] Tumor volume was evaluated as described above.
Drug-induced delay in tumor growth was assessed by two measures: (i). Tumor volume inhibition (TVI %) at one week after the last treatment in treated versus control tumors, which was calculated according to the Formula TVI (%)=(1-T/C)×100, where T and C are the tumor volume of the treated and control groups, respectively; and (ii). Tumor growth delay (TGD), assessed as the time period (days) of treatment-induced delay in tumor reaching a pre-determined volume of 3,500 mm^3, as compared to the vehicle-treated controls.

Data set [6] can be described thus: Adverse effects and body weight in A375 tumor-bearing mice. The data set is classed as in vivo, nude mice. The note with it: for gain of initial body weight: day 1 of treatment up to day 29 of inoculation. The protocol: For the evaluation of potential adverse effects of ATT-11T, nude mice, bearing the A375 melanoma tumors and treated with ATT-11T as described above, were monitored for adverse effects immediacy after drug administration, and also twice a week, through one day after last dose. The evaluation protocol consisted of gross observation, registration of abnormal signs, and determination of body weight. Potential body weight loss (BWL) was calculated as % BWL=100−(BWdays/BWday1×100), where day 1 is the first day of treatment and day x is the day of assessment thereafter.

Where [7] appears, read: 20 mg/kg i.v. once a week for 3 weeks.
Setting [8] is: 40 mg/kg i.v. once a week for 3 weeks.

Each structure is given as a SMILES string. pIC50: −log10 of the molar value. Like-named read-outs stand apart in the source and are kept apart here.

The MTD is the highest dose tested that stayed within the study's limit of toxicity. For `CCc1c2c(nc3ccc(OC(=O)N4CCC(N5CCCCC5)CC4)cc13)-c1cc3c(c(=O)n1C2)COC(=O)[C@]3(O)CC` [CPT-11, irinotecan, reference compound], the “% tumor growth delay (% TGD) to 1,000 mm^3” value stood at 43% in data set [1] (18 mg/kg i.v. (equimolar to 20 mg/kg ATT-11T)) and 76% in data set [1] (36 mg/kg i.v. (equimolar to 40 mg/kg ATT-11T)). Further, in [1] (36 mg/kg i.v. once a week for 3 weeks, one week after the last administration), the “tumor growth inhibition (TGI) vs. control tumors” value was 42%. Moreover, the pIC50 in the data set on A375-melanoma cells (A-375, A375 cells, 24 hours incubation, XTT) is 5.00. In addition, the maximum tolerated dose (MTD) in data set [2] is 100 mg/kg. In addition, the “plasma level of derived SN-38 at 24 hours after administration” value in data set [3] (dogs) is on record as “below detection level”. The compound also yielded a tumor growth inhibition in [4] ([…]) of 85%. In data set [5] (18 mg/kg i.v. once a week for three weeks), the “growth inhibition vs. the control group” value is listed as 83%. For the same compound, in the data set with H-82 SCLC tumors (36 mg/kg i.v. once a week for three weeks), the “tumor growth inhibition vs. the control group” value stood at 67%.
For the compound `CCc1c2c(nc3ccc(OC(=O)N4CCC(CCC(C)(COC(C)(C)C)COC(C)(C)C)CC4)cc13)-c1cc3c(c(=O)n1C2)COC(=O)C3(O)CC` (centres unmarked) [ATT-11T], the “% tumor growth delay (% TGD) to 1,000 mm^3” value is 86% in data set [1] (setting [7]) and 152% in data set [1] (setting [8]). Besides, the “days post tumor inoculation to reach average tumor volume of 1,000 mm^3” value in [1] (setting [7]) stood at 39 days; in data set [1] (setting [8]), 53 days. Moreover, the “tumor growth inhibition (TGI)” value in [1] (20 mg/kg i.v. once a week for 3 weeks, one week after the last administration) turned out to be 48%. Further, the “tumor growth inhibition (TGI) vs. control tumors” value in data set [1] (40 mg/kg i.v. once a week for 3 weeks, one week after the last administration) turned out to be 86%. In the data set on A375-melanoma cells (A-375, 24 h), the pIC50 is 5.48. Further, the MTD at 3 weeks in [2] came to 150 mg/kg. For the same compound, the “plasma level of derived SN-38 at 48 hours after administration” value in data set [3] (dogs) was “still detectable”. Further, the “AUC of ATT-11T relative to that of CPT-11” value in [3] (dogs, parent drug) is listed as 4 fold. In addition, in [3] (dogs, parent drug), the “increase in t1/2 of ATT-11T over CPT-11” value came out at 3.8 fold. Further, the half-life in data set [3] (dog, in vivo, iv, female beagle dogs, read-out: plasma half-life (t1/2) of the parent drug (converted)) is 25.6 h. For the same compound, in [4] (MTD 150 mg/kg i.p.), the “tumor growth 136 days post last treatment (161 days post tumor inoculation)” value is “no tumor growth”. The tumor growth inhibition in data set [4] (MTD 150 mg/kg intraperitoneally once a week for three weeks) turned out to be 100%. In addition, the “growth inhibition vs. the control group” value in [5] (20 mg/kg i.v. once a week for three weeks) stood at 99%. For the same compound, the average tumor volume in data set [5] (20 mg/kg i.v., day 42 (21 days post last dose)) amounted to 46 mm^3. In addition, the “Tumor volume inhibition (TVI)” value in the data set with A375 melanoma tumors (5 mg/kg i.v. twice a week for three weeks) and in the data set with A375 melanoma tumors (20 mg/kg i.v. twice a week for three weeks) was 100% in each case. Besides, the “tumor growth at day 30 after the last dose” value in the data set on A375 melanoma tumors (5 mg/kg) is recorded as “little”; in the data set on A375 melanoma tumors (20 mg/kg) it was “no growth”. Also, the growth inhibition in the data set with A375 melanoma tumors (ATT-11T 5 mg/kg i.v. three times a week for three weeks) and in the data set on A375 melanoma tumors (ATT-11T 20 mg/kg i.v. three times a week for three weeks) was 100% each time. In addition, the “tumor growth inhibition vs. the control group” value in the data set with H-82 SCLC tumors (40 mg/kg i.v. once a week for three weeks) is 92%. Besides, the “gain of initial body weight” value in data set [6] (5 mg/kg) was found to be 7%; in data set [6] (20 mg/kg) it was 5%. Further, the “tolerability (adverse effects, weight loss)” value in [6] (both doses, 5 and 20 mg/kg) was “well-tolerated”.
